SMILES strings stand for the structures. Square brackets hold non-standard residues; d marks the D form. Peptide text beside a SMILES is read from it. Lys(Me3) = C[N+](C)(C)CCCC[C@H](N)C(=O)O; Lys(Me2) = CN(C)CCCC[C@H](N)C(=O)O

Our source for the Kd values is article PMC3013012 (The Journal of Biological Chemistry, 2010).

In experiment [1] the target is T1, human Cbx7 chromodomain (Homo sapiens, UniProt O95931).
T1 sequence (O95931 8-62): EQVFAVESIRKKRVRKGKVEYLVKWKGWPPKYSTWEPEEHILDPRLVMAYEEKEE
The experiment can be described thus: Fluorescence polarization peptide binding. (In general: Fluorescence polarisation rises when a labelled molecule tumbles more slowly, as on binding a larger partner.)

In experiment [2] the target is T2, human Cbx8 chromodomain (Homo sapiens, UniProt Q9HC52).
T2 sequence (Q9HC52 8-61): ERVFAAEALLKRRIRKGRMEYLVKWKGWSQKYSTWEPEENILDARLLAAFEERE
The experiment can be described thus: Fluorescence polarization peptide binding.

By Kd is commonly meant the equilibrium constant for the complex coming apart. A high value points to weaker binding. On to `CC[C@H](C)[C@H](NC(=O)CNC(=O)[C@@H](N)Cc1c[nH]cn1)C(=O)N[C@@H](C)C(=O)N[C@H](C(=O)N[C@@H](CCCC[N+](C)(C)C)C(=O)N[C@@H](CO)C(=O)N[C@H](C(=O)N[C@@H](CC(N)=O)C(=O)O)[C@@H](C)O)[C@@H](C)CC` [IAIK(1178)S] (H-HGIAI[Lys(Me3)]STN-OH), for which, in experiment [1], the Kd was found to be 5 ± 0.8 µM.

Consider `CC[C@H](C)[C@H](NC(=O)CNC(=O)[C@H](Cc1c[nH]cn1)NC(=O)[C@@H](NC(=O)[C@H](CO)NC(=O)[C@H](CCCCN(C)C)NC(=O)[C@H](CC(C)C)NC(=O)[C@H](C)NC(=O)[C@H](Cc1ccccc1)NC(=O)CNC(=O)[C@H](CCCNC(=N)N)NC(=O)[C@@H](NC(=O)[C@H](CO)NC(=O)[C@H](CCCCN(C)C)NC(=O)[C@@H](NC(=O)[C@H](C)NC(=O)[C@@H](NC(=O)[C@H](CCC(N)=O)NC(=O)[C@@H](N)CCCNC(=N)N)C(C)C)C(C)C)[C@@H](C)O)[C@@H](C)O)C(=O)N[C@@H](C)C(=O)N[C@H](C(=O)N[C@@H](CCCCN(C)C)C(=O)N[C@@H](CO)C(=O)N[C@H](C(=O)N[C@@H](CC(N)=O)C(=O)O)[C@@H](C)O)[C@@H](C)CC` [Kme2(1162,1170,1178)] (H-RQVAV[Lys(Me2)]STRGFAL[Lys(Me2)]STHGIAI[Lys(Me2)]STN-OH), for which the values for the Kd in experiment [2] and in experiment [1] were 180 ± 80 µM and 15 ± 0.5 µM, respectively.

As for `CC[C@H](C)[C@H](NC(=O)CNC(=O)[C@H](Cc1c[nH]cn1)NC(=O)[C@@H](NC(=O)[C@H](CO)NC(=O)[C@H](CCCC[N+](C)(C)C)NC(=O)[C@H](CC(C)C)NC(=O)[C@H](C)NC(=O)[C@H](Cc1ccccc1)NC(=O)CNC(=O)[C@H](CCCNC(=N)N)NC(=O)[C@@H](NC(=O)[C@H](CO)NC(=O)[C@H](CCCC[N+](C)(C)C)NC(=O)[C@@H](NC(=O)[C@H](C)NC(=O)[C@@H](NC(=O)[C@H](CCC(N)=O)NC(=O)[C@@H](N)CCCNC(=N)N)C(C)C)C(C)C)[C@@H](C)O)[C@@H](C)O)C(=O)N[C@@H](C)C(=O)N[C@H](C(=O)N[C@@H](CCCC[N+](C)(C)C)C(=O)N[C@@H](CO)C(=O)N[C@H](C(=O)N[C@@H](CC(N)=O)C(=O)O)[C@@H](C)O)[C@@H](C)CC` [Kme3(1162,1170,1178)] (H-RQVAV[Lys(Me3)]STRGFAL[Lys(Me3)]STHGIAI[Lys(Me3)]STN-OH), the Kd in experiment [2] amounted to 6 ± 2 µM; in experiment [1] it was 1.2 ± 0.2 µM.
